Experiments:
redroot pigweed [1] = assay: Test Example 4: herbicidal effect by soil treatment (Table 19, symbol N); format: in vivo, redroot pigweed (Amaranthus retroflexus); settings: amount of applied herbicide 320 g/ha
Procedure, shortened: (§1)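 Pre-emergence style soil spray: seeds under ~1.5 cm sterilized diluvial soil received a uniform coat of emulsion diluted to the predetermined herbicide amount. Greenhouse 25–30° C; readout at week three on previously defined criteria.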

chickweed [2] = assay: Test Example 4: herbicidal effect by soil treatment (Table 19, symbol P); format: in vivo, common chickweed (Stellaria media); settings: amount of applied herbicide 320 g/ha
Procedure, shortened: as §1

blackgrass [3] = assay: Test Example 4: herbicidal effect by soil treatment (Table 19, symbol J); format: in vivo, blackgrass (Alopecurus myosuroides); settings: amount of applied herbicide 320 g/ha
Procedure, shortened: as §1

chickweed [4] = assay: Test Example 5: herbicidal effect by foliage application, plastic box (Table 20, symbol P); format: in vivo, common chickweed (Stellaria media); settings: foliage application, 320 g/ha
Procedure, shortened: (§2)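 Plants were sown into sterilized diluvial soil under about 1.5 cm cover and kept in a greenhouse at 25° C. to 30° C. Fourteen days on, foliage received an even spray of the diluted emulsion. Herbicidal or crop effect was judged three weeks afterwards.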

green foxtail [5] = assay: Test Example 5: herbicidal effect by foliage application, plastic box (Table 20, symbol G); format: in vivo, green foxtail (Setaria viridis); settings: foliage application, 320 g/ha
Procedure, shortened: as §2

windgrass [6] = assay: Test Example 5: herbicidal effect by foliage application, plastic box (Table 20, symbol L); format: in vivo, windgrass (Apera spica-venti); settings: foliage application, 320 g/ha
Procedure, shortened: as §2

southern crabgrass [7] = assay: Test Example 5: herbicidal effect by foliage application, plastic box (Table 20, symbol F); format: in vivo, southern crabgrass (Digitaria ciliaris); settings: foliage application, 320 g/ha
Procedure, shortened: as §2

velvetleaf [8] = assay: Test Example 4: herbicidal effect by soil treatment (Table 19, symbol M); format: in vivo, velvetleaf (Abutilon theophrasti); settings: amount of applied herbicide 320 g/ha
Procedure, shortened: as §1

rice flat sedge = assay: Test Example 3: herbicidal effect by foliage application, Wagner pot (Table 18, symbol E); format: in vivo, rice flat sedge (Cyperus iria)
Procedure, shortened: (§3)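 Plants were sown in alluvial soil held under 0.1–0.5 cm standing water and grown 14 days in a greenhouse at 25–30 °C. An emulsifiable formulation, water-diluted to the set dose, was then sprayed onto the foliage, and effects were scored three weeks later using previously defined criteria.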

barnyard grass [9] = assay: Test Example 4: herbicidal effect by soil treatment (Table 19, symbol H); format: in vivo, barnyard grass (Echinochloa crus-galli); settings: amount of applied herbicide 320 g/ha
Procedure, shortened: as §1

green foxtail [10] = assay: Test Example 4: herbicidal effect by soil treatment (Table 19, symbol G); format: in vivo, green foxtail (Setaria viridis); settings: amount of applied herbicide 320 g/ha
Procedure, shortened: as §1

windgrass [11] = assay: Test Example 4: herbicidal effect by soil treatment (Table 19, symbol L); format: in vivo, windgrass (Apera spica-venti); settings: amount of applied herbicide 320 g/ha
Procedure, shortened: as §1

false cleavers [12] = assay: Test Example 5: herbicidal effect by foliage application, plastic box (Table 20, symbol Q); format: in vivo, false cleavers (Galium spurium); settings: foliage application, 320 g/ha
Procedure, shortened: as §2

persian speedwell [13] = assay: Test Example 5: herbicidal effect by foliage application, plastic box (Table 20, symbol R); format: in vivo, Persian speedwell (Veronica persica); settings: foliage application, 320 g/ha
Procedure, shortened: as §2

Italian ryegrass [14] = assay: Test Example 5: herbicidal effect by foliage application, plastic box (Table 20, symbol K); format: in vivo, Italian ryegrass (Lolium multiflorum); settings: foliage application, 320 g/ha
Procedure, shortened: as §2

wild oat [15] = assay: Test Example 5: herbicidal effect by foliage application, plastic box (Table 20, symbol I); format: in vivo, wild oat (Avena fatua); settings: foliage application, 320 g/ha
Procedure, shortened: as §2

wild oat [16] = assay: Test Example 4: herbicidal effect by soil treatment (Table 19, symbol I); format: in vivo, wild oat (Avena fatua); settings: amount of applied herbicide 320 g/ha
Procedure, shortened: as §1

lambsquarters [17] = assay: Test Example 5: herbicidal effect by foliage application, plastic box (Table 20, symbol O); format: in vivo, lambsquarters (Chenopodium album); settings: foliage application, 320 g/ha
Procedure, shortened: as §2

redroot pigweed [18] = assay: Test Example 5: herbicidal effect by foliage application, plastic box (Table 20, symbol N); format: in vivo, redroot pigweed (Amaranthus retroflexus); settings: foliage application, 320 g/ha
Procedure, shortened: as §2

velvetleaf [19] = assay: Test Example 5: herbicidal effect by foliage application, plastic box (Table 20, symbol M); format: in vivo, velvetleaf (Abutilon theophrasti); settings: foliage application, 320 g/ha
Procedure, shortened: as §2

Italian ryegrass [20] = assay: Test Example 4: herbicidal effect by soil treatment (Table 19, symbol K); format: in vivo, Italian ryegrass (Lolium multiflorum); settings: amount of applied herbicide 320 g/ha
Procedure, shortened: as §1

persian speedwell [21] = assay: Test Example 4: herbicidal effect by soil treatment (Table 19, symbol R); format: in vivo, Persian speedwell (Veronica persica); settings: amount of applied herbicide 320 g/ha
Procedure, shortened: as §1

barnyard grass [22] = assay: Test Example 3: herbicidal effect by foliage application, Wagner pot (Table 18, symbol H); format: in vivo, barnyard grass (Echinochloa crus-galli)
Procedure, shortened: as §3

Chinese sprangletop = assay: Test Example 3: herbicidal effect by foliage application, Wagner pot (Table 18, symbol D); format: in vivo, chinese sprangletop (Leptochloa chinensis)
Procedure, shortened: as §3

lambsquarters [23] = assay: Test Example 4: herbicidal effect by soil treatment (Table 19, symbol O); format: in vivo, lambsquarters (Chenopodium album); settings: amount of applied herbicide 320 g/ha
Procedure, shortened: as §1

barnyard grass [24] = assay: Test Example 5: herbicidal effect by foliage application, plastic box (Table 20, symbol H); format: in vivo, barnyard grass (Echinochloa crus-galli); settings: foliage application, 320 g/ha
Procedure, shortened: as §2

false cleavers [25] = assay: Test Example 4: herbicidal effect by soil treatment (Table 19, symbol Q); format: in vivo, false cleavers (Galium spurium); settings: amount of applied herbicide 320 g/ha
Procedure, shortened: as §1

southern crabgrass [26] = assay: Test Example 4: herbicidal effect by soil treatment (Table 19, symbol F); format: in vivo, southern crabgrass (Digitaria ciliaris); settings: amount of applied herbicide 320 g/ha
Procedure, shortened: as §1

blackgrass [27] = assay: Test Example 5: herbicidal effect by foliage application, plastic box (Table 20, symbol J); format: in vivo, blackgrass (Alopecurus myosuroides); settings: foliage application, 320 g/ha
Procedure, shortened: as §2

[28] = evaluated three weeks after application
[29] = amount of applied herbicide 320 g/ha

With Cc1nn(C)c(=O)c(-c2c(-c3ccc4c(c3)OCCO4)sc3ccc(Cl)cc23)c1O [2-127] the “N: redroot pigweed, herbicidal effect rating” value (redroot pigweed [1]) was 0 (Herbicidal rate of 5% or less (almost no effect)), the “P: chickweed, herbicidal effect rating” value (chickweed [2]) was 3 (Herbicidal rate of 40% or more and less than 70%) and the “J: blackgrass, herbicidal effect rating” value (blackgrass [3]) was 0 (Herbicidal rate of 5% or less (almost no effect)). The “herbicidal effect on P: chickweed” value (chickweed [4]; [28]) was 5 (Herbicidal rate of 90% or more (almost completely withered)), the “herbicidal effect on G: green foxtail” value (green foxtail [5]; [28]) was 0 (Herbicidal rate of 5% or less (almost no effect)) and the “herbicidal effect on L: windgrass” value (windgrass [6]; [28]) was 0 (Herbicidal rate of 5% or less (almost no effect)). The “herbicidal effect on F: southern crabgrass” value (southern crabgrass [7]; [28]) was 0 (Herbicidal rate of 5% or less (almost no effect)), the “M: velvetleaf, herbicidal effect rating” value (velvetleaf [8]) was 4 (Herbicidal rate of 70% or more and less than 90%) and the “herbicidal effect on E: rice flat sedge” value (rice flat sedge; [29]) was 5 (Herbicidal rate of 90% or more (almost completely withered)). For the same molecule, the “H: barnyard grass, herbicidal effect rating” value (barnyard grass [9]) was 0 (Herbicidal rate of 5% or less (almost no effect)), the “G: green foxtail, herbicidal effect rating” value (green foxtail [10]) was 0 (Herbicidal rate of 5% or less (almost no effect)) and the “L: windgrass, herbicidal effect rating” value (windgrass [11]) was 0 (Herbicidal rate of 5% or less (almost no effect)). The “herbicidal effect on Q: false cleavers” value (false cleavers [12]; [28]) was 0 (Herbicidal rate of 5% or less (almost no effect)), the “herbicidal effect on R: persian speedwell” value (persian speedwell [13]; [28]) was 5 (Herbicidal rate of 90% or more (almost completely withered)) and the “herbicidal effect on K: Italian ryegrass” value (Italian ryegrass [14]; [28]) was 0 (Herbicidal rate of 5% or less (almost no effect)). For the same molecule, the “herbicidal effect on I: wild oat” value (wild oat [15]; [28]) was 0 (Herbicidal rate of 5% or less (almost no effect)), the “I: wild oat, herbicidal effect rating” value (wild oat [16]) was 0 (Herbicidal rate of 5% or less (almost no effect)) and the “herbicidal effect on O: lambsquarters” value (lambsquarters [17]; [28]) was 3 (Herbicidal rate of 40% or more and less than 70%). For the same molecule, the “herbicidal effect on N: redroot pigweed” value (redroot pigweed [18]; [28]) was 3 (Herbicidal rate of 40% or more and less than 70%), the “herbicidal effect on M: velvetleaf” value (velvetleaf [19]; [28]) was 4 (Herbicidal rate of 70% or more and less than 90%) and the “K: Italian ryegrass, herbicidal effect rating” value (Italian ryegrass [20]) was 0 (Herbicidal rate of 5% or less (almost no effect)). The “R: persian speedwell, herbicidal effect rating” value (persian speedwell [21]) was 5 (Herbicidal rate of 90% or more (almost completely withered)), the “herbicidal effect on H: barnyard grass” value (barnyard grass [22]; [29]) was 3 (Herbicidal rate of 40% or more and less than 70%) and the “herbicidal effect on D: Chinese sprangletop” value (Chinese sprangletop; [29]) was 0 (Herbicidal rate of 5% or less (almost no effect)). For the same molecule, the “O: lambsquarters, herbicidal effect rating” value (lambsquarters [23]) was 4 (Herbicidal rate of 70% or more and less than 90%), the “herbicidal effect on H: barnyard grass” value (barnyard grass [24]; [28]) was 1 (Herbicidal rate of 5% or more and less than 20%) and the “Q: false cleavers, herbicidal effect rating” value (false cleavers [25]) was 0 (Herbicidal rate of 5% or less (almost no effect)). For the same molecule, the “F: southern crabgrass, herbicidal effect rating” value (southern crabgrass [26]) was 0 (Herbicidal rate of 5% or less (almost no effect)) and the “herbicidal effect on J: blackgrass” value (blackgrass [27]; [28]) was 0 (Herbicidal rate of 5% or less (almost no effect)).
For CCCCOc1ccccc1-c1sc2ccccc2c1-c1c(OC(=O)CCC)c(C)nn(C)c1=O [1-023], the “herbicidal effect rating, N: redroot pigweed” value (redroot pigweed [1]) was 0 (Herbicidal rate of 5% or less (almost no effect)), the “herbicidal effect rating, P: chickweed” value (chickweed [2]) was 0 (Herbicidal rate of 5% or less (almost no effect)) and the “herbicidal effect rating, J: blackgrass” value (blackgrass [3]) was 0 (Herbicidal rate of 5% or less (almost no effect)). For the same molecule, the “herbicidal effect grade, P: chickweed” value (chickweed [4]; three weeks after application) was 5 (Herbicidal rate of 90% or more (almost completely withered)), the “herbicidal effect grade, G: green foxtail” value (green foxtail [5]; three weeks after application) was 0 (Herbicidal rate of 5% or less (almost no effect)) and the “herbicidal effect grade, L: windgrass” value (windgrass [6]; three weeks after application) was 0 (Herbicidal rate of 5% or less (almost no effect)). The “herbicidal effect grade, F: southern crabgrass” value (southern crabgrass [7]; three weeks after application) was 0 (Herbicidal rate of 5% or less (almost no effect)), the “herbicidal effect rating, M: velvetleaf” value (velvetleaf [8]) was 0 (Herbicidal rate of 5% or less (almost no effect)) and the “herbicidal effect on E (rice flat sedge), rating 0-5” value (rice flat sedge; 320 g/ha) was 3 (Herbicidal rate of 40% or more and less than 70%). For the same molecule, the “herbicidal effect rating, H: barnyard grass” value (barnyard grass [9]) was 0 (Herbicidal rate of 5% or less (almost no effect)), the “herbicidal effect rating, G: green foxtail” value (green foxtail [10]) was 2 (Herbicidal rate of 20% or more and less than 40%) and the “herbicidal effect rating, L: windgrass” value (windgrass [11]) was 0 (Herbicidal rate of 5% or less (almost no effect)). For the same molecule, the “herbicidal effect grade, Q: false cleavers” value (false cleavers [12]; three weeks after application) was 2 (Herbicidal rate of 20% or more and less than 40%), the “herbicidal effect grade, R: persian speedwell” value (persian speedwell [13]; three weeks after application) was 3 (Herbicidal rate of 40% or more and less than 70%) and the “herbicidal effect grade, K: Italian ryegrass” value (Italian ryegrass [14]; three weeks after application) was 0 (Herbicidal rate of 5% or less (almost no effect)). For the same molecule, the “herbicidal effect grade, I: wild oat” value (wild oat [15]; three weeks after application) was 0 (Herbicidal rate of 5% or less (almost no effect)), the “herbicidal effect rating, I: wild oat” value (wild oat [16]) was 0 (Herbicidal rate of 5% or less (almost no effect)) and the “herbicidal effect grade, O: lambsquarters” value (lambsquarters [17]; three weeks after application) was 0 (Herbicidal rate of 5% or less (almost no effect)). The “herbicidal effect grade, N: redroot pigweed” value (redroot pigweed [18]; three weeks after application) was 0 (Herbicidal rate of 5% or less (almost no effect)), the “herbicidal effect grade, M: velvetleaf” value (velvetleaf [19]; three weeks after application) was 0 (Herbicidal rate of 5% or less (almost no effect)) and the “herbicidal effect rating, K: Italian ryegrass” value (Italian ryegrass [20]) was 0 (Herbicidal rate of 5% or less (almost no effect)). For the same molecule, the “herbicidal effect rating, R: persian speedwell” value (persian speedwell [21]) was 0 (Herbicidal rate of 5% or less (almost no effect)), the “herbicidal effect on H (barnyard grass), rating 0-5” value (barnyard grass [22]; 320 g/ha) was 1 (Herbicidal rate of 5% or more and less than 20%) and the “herbicidal effect on D (Chinese sprangletop), rating 0-5” value (Chinese sprangletop; 320 g/ha) was 0 (Herbicidal rate of 5% or less (almost no effect)). The “herbicidal effect rating, O: lambsquarters” value (lambsquarters [23]) was 0 (Herbicidal rate of 5% or less (almost no effect)), the “herbicidal effect grade, H: barnyard grass” value (barnyard grass [24]; three weeks after application) was 0 (Herbicidal rate of 5% or less (almost no effect)) and the “herbicidal effect rating, Q: false cleavers” value (false cleavers [25]) was 0 (Herbicidal rate of 5% or less (almost no effect)). The “herbicidal effect rating, F: southern crabgrass” value (southern crabgrass [26]) was 0 (Herbicidal rate of 5% or less (almost no effect)) and the “herbicidal effect grade, J: blackgrass” value (blackgrass [27]; three weeks after application) was 0 (Herbicidal rate of 5% or less (almost no effect)).

From patent US20230085307A1, “PYRIDAZINONE COMPOUND AND HERBICIDE” (NISSAN CHEMICAL CORPORATION, priority 2019, published 2023)
